#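 96-well plates; 48 h exposure; 5 concentrations. Endpoints by linear interpolation between flanking doses. Not reached: highest tested concentration assigned. Abbreviation: GI50, concentration required for 50% inhibition of growth. The concentration for full growth arrest is given as TGI.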
# Tests used:
# Assay in all cases: DTP human tumour cell line panel, 48 h
# MOLT-4 leukemia = system: MOLT-4 leukemia
# NCI-H226 lung = system: NCI-H226 lung
# NCI-H23 lung = system: NCI-H23 lung
# NCI-H460 lung = system: NCI-H460 lung
# NCI-H522 lung = system: NCI-H522 lung
# NCI/ADR-RES ovarian = system: NCI/ADR-RES ovarian
# OVCAR-3 ovarian = system: OVCAR-3 ovarian
# OVCAR-4 ovarian = system: OVCAR-4 ovarian
# OVCAR-5 ovarian = system: OVCAR-5 ovarian
# OVCAR-8 ovarian = system: OVCAR-8 ovarian
# PC-3 prostate = system: PC-3 prostate
# RPMI-8226 leukemia = system: RPMI-8226 leukemia
# RXF 393 renal = system: RXF 393 renal
# SF-268 CNS = system: SF-268 CNS
# SF-295 CNS = system: SF-295 CNS
# SF-539 CNS = system: SF-539 CNS
# SK-MEL-2 melanoma = system: SK-MEL-2 melanoma
# SK-MEL-28 melanoma = system: SK-MEL-28 melanoma
# SK-MEL-5 melanoma = system: SK-MEL-5 melanoma
# SK-OV-3 ovarian = system: SK-OV-3 ovarian
# SN12C renal = system: SN12C renal
# SNB-19 CNS = system: SNB-19 CNS
# SNB-75 CNS = system: SNB-75 CNS
# SR leukemia = system: SR leukemia
# SW-620 colon = system: SW-620 colon
# T-47D breast = system: T-47D breast
# TK-10 renal = system: TK-10 renal
# U251 CNS = system: U251 CNS
# UACC-257 melanoma = system: UACC-257 melanoma
# UACC-62 melanoma = system: UACC-62 melanoma
# UO-31 renal = system: UO-31 renal
smiles,measurement,setting,value
Cc1ccc(CNC(=O)Cc2ccc3c(c2)CN(C2CCC(=O)NC2=O)C3=O)cc1 (stereo not given),TGI,MOLT-4 leukemia,> 100000 nM
same,GI50,NCI-H226 lung,< 10 nM
same,TGI,NCI-H226 lung,1030 nM
same,GI50,NCI-H23 lung,5090 nM
same,TGI,NCI-H23 lung,> 100000 nM
same,GI50,NCI-H460 lung,> 100000 nM
same,TGI,NCI-H460 lung,> 100000 nM
same,GI50,NCI-H522 lung,622 nM
same,TGI,NCI-H522 lung,> 100000 nM
same,GI50,NCI/ADR-RES ovarian,470 nM
same,TGI,NCI/ADR-RES ovarian,> 100000 nM
same,GI50,OVCAR-3 ovarian,160 nM
same,TGI,OVCAR-3 ovarian,> 100000 nM
same,GI50,OVCAR-4 ovarian,32.1 nM
same,GI50,OVCAR-5 ovarian,16.9 nM
same,TGI,OVCAR-5 ovarian,1780 nM
same,GI50,OVCAR-8 ovarian,< 10 nM
same,GI50,PC-3 prostate,< 10 nM
same,GI50,RPMI-8226 leukemia,40.9 nM
same,TGI,RPMI-8226 leukemia,> 100000 nM
same,GI50,RXF 393 renal,24.8 nM
same,TGI,RXF 393 renal,955 nM
same,GI50,SF-268 CNS,29.9 nM
same,TGI,SF-268 CNS,> 100000 nM
same,GI50,SF-295 CNS,46 nM
same,TGI,SF-295 CNS,> 100000 nM
same,GI50,SF-539 CNS,50.3 nM
same,TGI,SF-539 CNS,> 100000 nM
same,GI50,SK-MEL-2 melanoma,20.6 nM
same,TGI,SK-MEL-2 melanoma,94.5 nM
same,GI50,SK-MEL-28 melanoma,70.1 nM
same,TGI,SK-MEL-28 melanoma,> 100000 nM
same,GI50,SK-MEL-5 melanoma,14.8 nM
same,TGI,SK-MEL-5 melanoma,59.4 nM
same,GI50,SK-OV-3 ovarian,77 nM
same,GI50,SN12C renal,21.7 nM
same,GI50,SNB-19 CNS,< 11.5 nM
same,GI50,SNB-75 CNS,< 10 nM
same,TGI,SNB-75 CNS,357 nM
same,GI50,SR leukemia,4540 nM
same,TGI,SR leukemia,> 100000 nM
same,GI50,SW-620 colon,< 10 nM
same,TGI,SW-620 colon,> 100000 nM
same,GI50,T-47D breast,< 10 nM
same,TGI,T-47D breast,29.2 nM
same,GI50,TK-10 renal,95.3 nM
same,TGI,TK-10 renal,> 100000 nM
same,GI50,U251 CNS,375 nM
same,TGI,U251 CNS,> 100000 nM
same,GI50,UACC-257 melanoma,> 100000 nM
same,TGI,UACC-257 melanoma,> 100000 nM
same,GI50,UACC-62 melanoma,309 nM
same,TGI,UACC-62 melanoma,> 100000 nM
same,GI50,UO-31 renal,19.1 nM
same,TGI,UO-31 renal,469 nM

# Reference: PubChem BioAssay (NCI)
